Data reported in patent US6887869B2, “Mikanolide derivatives, their preparation and therapeutic uses” (Societe de Conseils de Recherches et d'Applications …, priority 2001, dated 2005).

Legend:
[1] = system: DU-145 (human prostate cancer cells); assay: Measurement of cell proliferation (WST1), DU-145; format: cell-based; conditions: DU-145, 96 hours treatment, read-out: IC50 inhibitory concentration, proliferation of DU-145 cell lines
Experimental: (§1) DU-145 (human prostate cancer cells), HT29 (cancer of the colon) and Mia-PaCa2 (human pancreatic cancer cells) were acquired from the American Tissue Culture Collection (Rockville, Md., USA).
(§2) Measurement of Cell Proliferation
(§3) The cells placed in 80 μl of Dulbecco's modified Eagle medium (Gibco-BRL, Cergy-Pontoise, France) completed with 10% of foetal calf serum inactivated by heating (Gibco-BRL, Cergy-Pontoise, France), 50000 units/l of penicillin and 50 mg/l streptomycin (Gibco-BRL, Cergy-Pontoise, France), and 2 mM of glutamine (Gibco-BRL, Cergy-Pontoise, France) were seeded on a 96-well plate on day 0. The cells were treated on day 1 for 96 hours with increasing concentrations of each of the compounds to be tested. At the end of the of this period, quantification of the cell proliferation is evaluated by a calorimetric test based on the cleavage of the tetrazolium salt WST1 by mitochondrial dehydrogenases in viable cells leading to the formation of formazan (Boehringer Mannheim, Meylan, France). These tests are carried out in duplicate with 8 determinations per concentration tested. The products are solubilised in dimethylsulphoxide (DMSO) at 10^−2 M and finally used in culture with 0.5% DMSO.

[2] = system: Mia-PaCa2 (human pancreatic cancer cells); assay: Measurement of cell proliferation (WST1), Mia-PaCa2; format: cell-based; conditions: MIA PaCa-2, Mia-Paca2, 96 hours treatment, read-out: IC50 inhibitory concentration, proliferation of Mia-Paca2 cell lines
Experimental: as §1, §2, §3

SMILES	IC50 [1] [µM]	IC50 [2] [µM]
CN(C)CC1C(=O)OC2CC3(C)OC3C(O)C(N(C)C)C3=CC(OC3=O)C21 (centres unmarked) [Example 2, 12-dimethylamino-3-dimethylaminomethyl-11-hydroxy-8-methyl-5,9,15-trioxatetracyclo[11.2.1.0^2,6.0^8,10]hexadec-13(16)-ene-4,14-dione]	≤ 30	≤ 30
CC12CC3OC(=O)C(CN4CCOCC4)C3C3C=C(C(=O)O3)C(N3CCOCC3)C(O)C1O2 (centres unmarked) [Example 4, 11-hydroxy-8-methyl-12-morpholino-3-morpholinomethyl-5,9,15-trioxatetracyclo[11.2.1.0^2,6.0^8,10]hexadec-13(16)-ene-4,14-dione]		≤ 30
CC1C(=O)OC2CC3(C)OC3C(O)C(N(C)C)C3=CC(OC3=O)C21 (centres unmarked) [Example 5, 12-dimethylamino-11-hydroxy-3,8-dimethyl-5,9,15-trioxatetracyclo[11.2.1.0^2,6.0^8,10]hexadec-13(16)-ene-4,14-dione]		≤ 30
CC1CCN(C2C3=CC(OC3=O)C3C(CC4(C)OC4C2O)OC(=O)C3C)CC1 (centres unmarked) [Example 9, 11-hydroxy-3,8-dimethyl-12-(4-methylpiperidino)-5,9,15-trioxatetracyclo[11.2.1.0^2,6.0^8,10]hexadec-13(16)-ene-4,14-dione]	≤ 30	≤ 30
CC1C(=O)OC2CC3(C)OC3C(O)C(N3CCCC3)C3=CC(OC3=O)C21 (centres unmarked) [Example 10, 11-hydroxy-3,8-dimethyl-12-pyrrolidino-5,9,15-trioxatetracyclo[11.2.1.0^2,6.0^8,10]hexadec-13(16)-ene-4,14-dione]		≤ 30
CC1C(=O)OC2CC3(C)OC3C(O)C(N3CCC(Cc4ccccc4)CC3)C3=CC(OC3=O)C21 (centres unmarked) [Example 12, 12-(4-benzylpiperidino)-11-hydroxy-3,8-dimethyl-5,9,15-trioxatetracyclo[11.2.1.0^2,6.0^8,10]hexadec-13(16)-ene-4,14-dione]		≤ 30
CC1CCN(C2C3=CC(OC3=O)C3C(CC4(C)OC4C2OC(=O)c2ccccc2)OC(=O)C3C)CC1 (centres unmarked) [Example 18, 3,8-dimethyl-12-(4-methylpiperidino)-4,14-dioxo-11-phenylcarbonyloxy-5,9,15-trioxatetracyclo[11.2.1.0^2,6.0^8,10]hexadec-13(16)-ene]	≤ 30	≤ 30
CCOC(=O)OC1C(N2CCC(C)CC2)C2=CC(OC2=O)C2C(CC3(C)OC13)OC(=O)C2C (centres unmarked) [Example 19, ethyl 3,8-dimethyl-12-(4-methylpiperidino)-4,14-dioxo-5,9,15-trioxatetracyclo[11.2.1.0^2,6.0^8,10]hexadec-13(16)-en-11-yl carbonate]		≤ 30
CC(C)CSCC1C(=O)OC2CC3(C)OC3C(O)C(SCC(C)C)C3=CC(OC3=O)C21 (centres unmarked) [Example 20, 11-hydroxy-12-isobutylsulphanyl-3-isobutylsulphanylmethyl-8-methyl-5,9,15-trioxatetracyclo[11.2.1.0^2,6.0^8,10]hexadec-13(16)-ene-4,14-dione]		≤ 30
CC1C(=O)OC2CC3(C)OC3C(OC(=O)C3CCCCC3)C(N(C)C)C3=CC(OC3=O)C21 (centres unmarked) [Example 24, 12-(dimethylamino)-3,8-dimethyl-4,14-dioxo-5,9,15-trioxatetracyclo[11.2.1.0^2,6.0^8,10]hexadec-13(16)-en-11-yl cyclohexanecarboxylate]	≤ 30	≤ 30
CC1C(=O)OC2CC3(C)OC3C(OC(=O)c3ccc(F)cc3)C(N(C)C)C3=CC(OC3=O)C21 (centres unmarked) [Example 25, 12-(dimethylamino)-3,8-dimethyl-4,14-dioxo-5,9,15-trioxatetracyclo[11.2.1.0^2,6.0^8,10]hexadec-13(16)-en-11-yl 4-fluorobenzoate]	≤ 30	≤ 30
CCCCCCC(=O)OC1C(N(C)C)C2=CC(OC2=O)C2C(CC3(C)OC13)OC(=O)C2C (centres unmarked) [Example 27, 12-(dimethylamino)-3,8-dimethyl-4,14-dioxo-5,9,15-trioxatetracyclo[11.2.1.0^2,6.0^8,10]hexadec-13(16)-en-11-yl heptanoate]	≤ 30	≤ 30
CC1C(=O)OC2CC3(C)OC3C(OC(=O)c3ccc(C(F)(F)F)cc3)C(N(C)C)C3=CC(OC3=O)C21 (centres unmarked) [Example 28, 12-(dimethylamino)-3,8-dimethyl-4,14-dioxo-5,9,15-trioxatetracyclo[11.2.1.0^2,6.0^8,10]hexadec-13(16)-en-11-yl 4-(trifluoromethyl)benzoate]	≤ 30	≤ 30
CC1C(=O)OC2CC3(C)OC3C(OC(=O)c3cccs3)C(N(C)C)C3=CC(OC3=O)C21 (centres unmarked) [Example 29, 12-(dimethylamino)-3,8-dimethyl-4,14-dioxo-5,9,15-trioxatetracyclo[11.2.1.0^2,6.0^8,10]hexadec-13(16)-en-11-yl 2-thiophenecarboxylate]	≤ 30	≤ 30
CC1C(=O)OC2CC3(C)OC3C(OC(=O)CC(C)(C)C)C(N(C)C)C3=CC(OC3=O)C21 (centres unmarked) [Example 30, 12-(dimethylamino)-3,8-dimethyl-4,14-dioxo-5,9,15-trioxatetracyclo[11.2.1.0^2,6.0^8,10]hexadec-13(16)-en-11-yl 3,3-dimethylbutanoate]	≤ 30	≤ 30
CC1C(=O)OC2CC3(C)OC3C(OC(=O)c3cc4ccccc4s3)C(N(C)C)C3=CC(OC3=O)C21 (centres unmarked) [Example 31, 12-(dimethylamino)-3,8-dimethyl-4,14-dioxo-5,9,15-trioxatetracyclo[11.2.1.0^2,6.0^8,10]hexadec-13(16)-en-11-yl 1-benzothiophene-2-carboxylate]	≤ 30	≤ 30
CC1C(=O)OC2CC3(C)OC3C(OC(=O)c3ccco3)C(N(C)C)C3=CC(OC3=O)C21 (centres unmarked) [Example 32, 12-(dimethylamino)-3,8-dimethyl-4,14-dioxo-5,9,15-trioxatetracyclo[11.2.1.0^2,6.0^8,10]hexadec-13(16)-en-11-yl 2-furoate]	≤ 30	≤ 30
CC1C(=O)OC2CC3(C)OC3C(OC(=O)c3ccc([N+](=O)[O-])o3)C(N(C)C)C3=CC(OC3=O)C21 (centres unmarked) [Example 33, 12-(dimethylamino)-3,8-dimethyl-4,14-dioxo-5,9,15-trioxatetracyclo[11.2.1.0^2,6.0^8,10]hexadec-13(16)-en-11-yl 5-nitro-2-furoate]		≤ 30
CC1C(=O)OC2CC3(C)OC3C(OC(=O)Cc3cccs3)C(N(C)C)C3=CC(OC3=O)C21 (centres unmarked) [Example 35, 12-(dimethylamino)-3,8-dimethyl-4,14-dioxo-5,9,15-trioxatetracyclo[11.2.1.0^2,6.0^8,10]hexadec-13(16)-en-11-yl 2-thienylacetate]		≤ 30
CC1C(=O)OC2CC3(C)OC3C(OC(=O)COc3ccccc3)C(N(C)C)C3=CC(OC3=O)C21 (centres unmarked) [Example 36, 12-(dimethylamino)-3,8-dimethyl-4,14-dioxo-5,9,15-trioxatetracyclo[11.2.1.0^2,6.0^8,10]hexadec-13(16)-en-11-yl phenoxyacetate]		≤ 30
CC1C(=O)OC2CC3(C)OC3C(OC(=O)Nc3ccc(C(C)(C)C)cc3)C(N(C)C)C3CC(OC3=O)C21 (centres unmarked) [Example 37, 8-(dimethylamino)-3,10a-dimethyl-2,6-dioxodecahydro-4,7-methenofuro[3,2-c]oxireno[f]oxacycloundecin-9-yl 4-tert-butylphenylcarbamate]		≤ 30
